smiles,measurement,value
"COc1cccc([C@H]2O[C@H](Cc3ncc(CC(=O)O)s3)C(=O)N(CC(C)(C)CO)c3ccc(Cl)cc32)c1OC [Example 1, (2-{[(3R,5S)-7-chloro-5-(2,3-dimethoxyphenyl)-1-(3-hydroxy-2,2-dimethylpropyl)-2-oxo-1,2,3,5-tetrahydro-4,1-benzoxazepin-3-yl]methyl}-1,3-thiazol-5-yl)acetic acid]",melting point,219 to 222 °C (dec.)

# Reference: US20080227770A1, “Benzoxazepine Compound” (Takeda Pharmaceutical Company Limited, priority 2003, published 2008)
